# Patent US5342980A, “Fungicidal agents” (American Cyanamid Company, priority 1992, dated 1994)
# Tests used:
# Pythium ultimum = test: In vitro fungicidal evaluation, growth inhibition (PYTHUL); type: cell-based; set-up: scale not given here; settings: 25 ppm, 3-4 days at 21° C.
# Method: (§1) Test compounds are dissolved in acetone and dispersed into cell well plates containing a suspension of ground fungal mycelia in a nutrient broth. Assay plates are incubated for 3-4 days at 21° C. Growth inhibition is measured visually and is rated using the following scale:
# (§2) Untreated controls, solvent blanks and reference standards are included in each test.
# (§3) Assay fungi include the plant pathogens, Pythium ultimum (Pythul); Rhizoctonia solani (Rhizso); Fusarium oxysporum f. sp. cucumerinum (Fusoxc); and Pseudocercosporella herpotrichoides (Psdche).
# (§4) When more than one test is run, the data are averaged.
# [1] = test system: Puccinia recondita f. sp. tritici; test: In vivo fungicidal evaluation, Wheat Leaf Rust (WLR); settings: 200 ppm, plants sprayed before inoculation
# Plasmopara viticola = test: In vivo fungicidal evaluation, Grape Downy Mildew (GDM); settings: 200 ppm, plants sprayed before inoculation
# Rhizoctonia solani [2] = test: In vitro fungicidal evaluation, growth inhibition (RHIZSO); type: cell-based; set-up: scale not given here; settings: 25 ppm, 3-4 days at 21° C.
# Method: as §1, §2, §3, §4
# Alternaria solani = test: In vivo fungicidal evaluation, Tomato Early Blight (TEB); settings: 200 ppm, plants sprayed before inoculation
# [3] = test system: Erysiphe graminis f. sp. tritici; test: In vivo fungicidal evaluation, Wheat Powdery Mildew (WPM); settings: 200 ppm, plants sprayed before inoculation
# Cercospora beticola = test: In vivo fungicidal evaluation, Sugar Beet Cercospora (SBC); settings: plants sprayed before inoculation
# Pythium aphanidermantum = test: Control of soil borne diseases, Cucumber damping-off by Pythium (CUPA); type: in vivo; settings: 14-18 days after treatment; also: ranges in brackets are in %
# Method: (§5) Pasturized soil (100 mL) is added to 6 cm diameter plastic cups without drainage holes and covered with pathogen contaminated soil (30 mL). Ten germinated cucumber seeds are planted on the contaminated soil and the seeds are covered with pasteurized soil (20 mL). Test compounds are dissolved in acetone, diluted with deionized water containing about 0.05% TWEEN 20®, and applied to the pots by drenching the soil surface with 15 mL of test solution. The pots are placed in a greenhouse for disease development. The pots are watered lightly until plants emerge from the soil surface. Disease evaluations are made 14-18 days after treatment according to the rating scale shown below.
# [4] = test system: Pseudocercosporella herpotrichoides; test: In vitro fungicidal evaluation, growth inhibition (PSDCHE); type: cell-based; set-up: scale not given here; settings: 25 ppm, 3-4 days at 21° C.
# Method: as §1, §2, §3, §4
# Rhizoctonia solani [5] = test: Control of soil borne diseases, Cucumber damping-off by Rhizoctonia (CURS); type: in vivo; settings: 14-18 days after treatment; also: ranges in brackets are in %
# Method: as §5
# Pyricularia oryzae = type: in vivo; settings: 200 ppm, plants sprayed before inoculation
# Venturia inaequalis = test: In vivo fungicidal evaluation, Apple Scab (AS); settings: 200 ppm, plants sprayed before inoculation
# Rhizoctonia solani [6] = test: In vivo fungicidal evaluation, Rice Sheath Blight (RSB); settings: 400 ppm, plants sprayed before inoculation
# [7] = test system: Fusarium oxysporum f. sp. cucumerinum; test: In vitro fungicidal evaluation, growth inhibition (FUSOXC); type: cell-based; set-up: scale not given here; settings: 25 ppm, 3-4 days at 21° C.
# Method: as §1, §2, §3, §4
# Botrytis cinerea = test: In vivo fungicidal evaluation, Pepper Botrytis (PB); settings: 200 ppm, plants sprayed before inoculation
# Mycosphaerella fijiensis = test: Control of banana black sigatoka on banana seedlings; type: in vivo; settings: 200 ppm, leaves sprayed to run-off; 28 to 40 days post inoculation
# Method: Test compounds are dissolved in acetone and diluted with distilled water containing about 0.05% TWEEN 20® to give a concentration of 200 ppm. Banana seedlings at the 6-7 leaf stage are sprayed with test solution on the upper and lower surfaces of the 3 youngest, unfurled leaves to the point of run-off, dried and inoculated with a spore suspension of Mycosphaerella fijiensis. The inoculated banana seedlings are placed outdoors in a plastic tunnel lined with wet jute sacks. The temperature is maintained between about 25° and 32° C. and the relative humidity is maintained between about 85% and 100%. After five days, the banana seedlings are transferred to a partially shaded screenhouse, surrounded with wet jute sacks and misted daily. When disease symptom development is optimal, typically 28 to 40 days post inoculation, the banana seedlings are rated for disease control according to the rating scale shown below. Each test contains inoculated treated plants, inoculated untreated plants and a reference standard. When more than one test is run, the data are averaged.
# [8] = test system: Fusarium oxysporium f. sp. cucumerinum; test: Control of soil borne diseases, Cucumber Fusarium Wilt (CUFO); type: in vivo; settings: 14-18 days after treatment; also: ranges in brackets are in %
# Method: as §5
# Cercospora arachidicola = test: In vivo fungicidal evaluation, Peanut Cercospora Early Leaf Spot (PCE); settings: 400 ppm, plants sprayed before inoculation
# [9] = test system: Pseudocercosporella herpotrichoides; test: In vivo fungicidal evaluation, Wheat Eyespot (WES); settings: 400 ppm, plants sprayed before inoculation
smiles,measurement,setting,value
"CN(O)C(=S)C(=O)C(C)(C)C [N,3,3-trimethyl-2-oxo-1-thiobutyrohydroxamic acid]","growth inhibition rating, PYTHUL",Pythium ultimum,6.0
same,"disease control rating, WLR",[1],1.7
same,"disease control rating, GDM",Plasmopara viticola,4.3
same,"growth inhibition rating, RHIZSO",Rhizoctonia solani [2],6.0
same,"disease control rating, TEB",Alternaria solani,2.7
same,"disease control rating, WPM",[3],6.3
same,"disease control rating, SBC",Cercospora beticola; 200 ppm,7.0
same,"disease control rating, SBC",Cercospora beticola; 400 ppm,3.5
same,"disease control rating, CUPA",Pythium aphanidermantum; 2.5 kg/ha soil drench,2 (15-25)
same,"disease control rating, CUPA",Pythium aphanidermantum; 5.0 kg/ha soil drench,2 (15-25)
same,"disease control rating, CUPA",Pythium aphanidermantum; 10.0 kg/ha soil drench,3 (30-40)
same,"growth inhibition rating, PSDCHE",[4],1.0
same,"disease control rating, CURS",Rhizoctonia solani [5]; 2.5 kg/ha soil drench,2 (15-25)
same,"disease control rating, CURS",Rhizoctonia solani [5]; 5.0 kg/ha soil drench,5 (60-70)
same,"disease control rating, CURS",Rhizoctonia solani [5]; 10.0 kg/ha soil drench,7 (90)
same,"disease control rating, RB",Pyricularia oryzae,2.7
same,"disease control rating, AS",Venturia inaequalis,5.0
same,"disease control rating, RSB",Rhizoctonia solani [6],0.3
same,"growth inhibition rating, FUSOXC",[7],0.0
same,"disease control rating, PB",Botrytis cinerea,3.0
same,Control of Banana Black Sigatoka (rating),Mycosphaerella fijiensis,3.7
same,"disease control rating, CUFO",[8]; 2.5 kg/ha soil drench,1 (5-10)
same,"disease control rating, CUFO",[8]; 5.0 kg/ha soil drench,0 (0)
same,"disease control rating, CUFO",[8]; 10.0 kg/ha soil drench,1 (5-10)
"CN(O)C(=S)C(=O)C(C)(C)C.CN(O)C(=S)C(=O)C(C)(C)C.[Mn+2] [N,3,3-trimethyl-2-oxo-1-thiobutyrohydroxamic acid manganese(+2) chelate]","growth inhibition rating, PYTHUL",Pythium ultimum,6.0
same,"disease control rating, WLR",[1],6.5
same,"disease control rating, GDM",Plasmopara viticola,5.5
same,"growth inhibition rating, RHIZSO",Rhizoctonia solani [2],4.5
same,"disease control rating, TEB",Alternaria solani,8.5
same,"disease control rating, WPM",[3],7.0
same,"disease control rating, SBC",Cercospora beticola; 200 ppm,7.5
same,"growth inhibition rating, PSDCHE",[4],7.0
same,"disease control rating, RB",Pyricularia oryzae,3.0
same,"disease control rating, AS",Venturia inaequalis,8.5
same,"disease control rating, RSB",Rhizoctonia solani [6],0.0
same,"growth inhibition rating, FUSOXC",[7],0.0
same,"disease control rating, PB",Botrytis cinerea,8.5
"CN([O-])C(=S)C(=O)C(C)(C)C.CN([O-])C(=S)C(=O)C(C)(C)C.CN([O-])C(=S)C(=O)C(C)(C)C.[Fe+3] [N,3,3-trimethyl-2-oxo-1-thiobutyrohydroxamic acid iron(+3) chelate]","growth inhibition rating, PYTHUL",Pythium ultimum,8.0
same,"disease control rating, WLR",[1],6.5
same,"disease control rating, GDM",Plasmopara viticola,8.5
same,"growth inhibition rating, RHIZSO",Rhizoctonia solani [2],4.5
same,"disease control rating, TEB",Alternaria solani,9.0
same,"disease control rating, WPM",[3],5.5
same,"disease control rating, SBC",Cercospora beticola; 200 ppm,8.2
same,"disease control rating, SBC",Cercospora beticola; 400 ppm,6.8
same,"disease control rating, CUPA",Pythium aphanidermantum; 2.5 kg/ha soil drench,0 (0)
same,"disease control rating, CUPA",Pythium aphanidermantum; 5.0 kg/ha soil drench,1 (5-10)
same,"disease control rating, CUPA",Pythium aphanidermantum; 10.0 kg/ha soil drench,2 (15-25)
same,"growth inhibition rating, PSDCHE",[4],2.5
same,"disease control rating, CURS",Rhizoctonia solani [5]; 2.5 kg/ha soil drench,4 (45-55)
same,"disease control rating, CURS",Rhizoctonia solani [5]; 5.0 kg/ha soil drench,6 (75-85)
same,"disease control rating, CURS",Rhizoctonia solani [5]; 10.0 kg/ha soil drench,9 (100)
same,"disease control rating, RB",Pyricularia oryzae,0.0
same,"disease control rating, AS",Venturia inaequalis,9.0
same,"disease control rating, RSB",Rhizoctonia solani [6],3.3
same,"growth inhibition rating, FUSOXC",[7],1.3
same,"disease control rating, PB",Botrytis cinerea,6.0
same,"disease control rating, CUFO",[8]; 2.5 kg/ha soil drench,1 (5-10)
same,"disease control rating, CUFO",[8]; 5.0 kg/ha soil drench,2 (15-25)
same,"disease control rating, CUFO",[8]; 10.0 kg/ha soil drench,3 (30-40)
"CN([O-])C(=S)C(=O)C(C)(C)C.CN([O-])C(=S)C(=O)C(C)(C)C.[Zn+2] [N,3,3-trimethyl-2-oxo-1-thiobutyrohydroxamic acid zinc(+2) chelate]","growth inhibition rating, PYTHUL",Pythium ultimum,8.5
same,"disease control rating, WLR",[1],7.5
same,"disease control rating, GDM",Plasmopara viticola,9.0
same,"growth inhibition rating, RHIZSO",Rhizoctonia solani [2],4.5
same,"disease control rating, TEB",Alternaria solani,8.5
same,"disease control rating, WPM",[3],3.0
same,"disease control rating, SBC",Cercospora beticola; 200 ppm,8.4
same,"disease control rating, SBC",Cercospora beticola; 400 ppm,7.5
same,"disease control rating, CUPA",Pythium aphanidermantum; 2.5 kg/ha soil drench,0 (0)
same,"disease control rating, CUPA",Pythium aphanidermantum; 5.0 kg/ha soil drench,2 (15-25)
same,"disease control rating, CUPA",Pythium aphanidermantum; 10.0 kg/ha soil drench,4 (45-55)
same,"growth inhibition rating, PSDCHE",[4],4.0
same,"disease control rating, CURS",Rhizoctonia solani [5]; 2.5 kg/ha soil drench,4 (45-55)
same,"disease control rating, CURS",Rhizoctonia solani [5]; 5.0 kg/ha soil drench,6 (75-85)
same,"disease control rating, CURS",Rhizoctonia solani [5]; 10.0 kg/ha soil drench,9 (100)
same,"disease control rating, RB",Pyricularia oryzae,8.0
same,"disease control rating, AS",Venturia inaequalis,9.0
same,"disease control rating, RSB",Rhizoctonia solani [6],6.0
same,"growth inhibition rating, FUSOXC",[7],4.5
same,"disease control rating, PB",Botrytis cinerea,8.5
same,"disease control rating, CUFO",[8]; 2.5 kg/ha soil drench,2 (15-25)
same,"disease control rating, CUFO",[8]; 5.0 kg/ha soil drench,1 (5-10)
same,"disease control rating, CUFO",[8]; 10.0 kg/ha soil drench,4 (45-55)
"CN([O-])C(=S)C(=O)C(C)(C)C.CN([O-])C(=S)C(=O)C(C)(C)C.[Cu+2] [N,3,3-trimethyl-2-oxo-1-thiobutyrohydroxamic acid copper(+2) chelate]","growth inhibition rating, PYTHUL",Pythium ultimum,8.0
same,"disease control rating, WLR",[1],6.5
same,"disease control rating, GDM",Plasmopara viticola,7.7
same,"growth inhibition rating, RHIZSO",Rhizoctonia solani [2],8.5
same,"disease control rating, PCE",Cercospora arachidicola,7.0
same,"disease control rating, TEB",Alternaria solani,9.0
same,"disease control rating, WPM",[3],5.0
same,"disease control rating, SBC",Cercospora beticola; 200 ppm,7.2
same,"disease control rating, SBC",Cercospora beticola; 400 ppm,6.1
same,"disease control rating, CUPA",Pythium aphanidermantum; 2.5 kg/ha soil drench,1 (5-10)
same,"disease control rating, CUPA",Pythium aphanidermantum; 5.0 kg/ha soil drench,2 (15-25)
same,"disease control rating, CUPA",Pythium aphanidermantum; 10.0 kg/ha soil drench,1 (5-10)
same,"growth inhibition rating, PSDCHE",[4],8.5
same,"disease control rating, CURS",Rhizoctonia solani [5]; 2.5 kg/ha soil drench,5 (60-70)
same,"disease control rating, CURS",Rhizoctonia solani [5]; 5.0 kg/ha soil drench,6 (75-85)
same,"disease control rating, CURS",Rhizoctonia solani [5]; 10.0 kg/ha soil drench,9 (100)
same,"disease control rating, RB",Pyricularia oryzae,0.0
same,"disease control rating, AS",Venturia inaequalis,8.0
same,"disease control rating, RSB",Rhizoctonia solani [6],4.7
same,"growth inhibition rating, FUSOXC",[7],4.8
same,"disease control rating, PB",Botrytis cinerea,6.5
same,Control of Banana Black Sigatoka (rating),Mycosphaerella fijiensis,6.3
same,"disease control rating, CUFO",[8]; 2.5 kg/ha soil drench,3 (30-40)
same,"disease control rating, CUFO",[8]; 5.0 kg/ha soil drench,5 (60-70)
same,"disease control rating, CUFO",[8]; 10.0 kg/ha soil drench,6 (75-85)
same,"disease control rating, WES",[9],6.7
